From patent US20030114456A1, “Novel heterocylic compounds with anti-inflamatory activity” (priority 2000, published 2003)
Where a name gives a salt, the structure may show the parent alone.

Key:
human COX-1 = target: T1, human COX-1 (Homo sapiens, UniProt P23219); test: Inhibition of COX-1 activity (PGE2 production after arachidonic acid) in U-937 cells; format: cell-based; conditions: 0.1 μM test compound, PGE2 production after 10 μM arachidonic acid
T1 construct: cell lines expressing human COX-1 (U-937 from human histiocitic lymphoma); endogenous in cells; host or cells: U-937 (human histiocytic lymphoma)
Protocol: (§1) Inhibition of cyclooxygenase-1 (COX-1) and cyclooxygenase-2 (COX-2) Activity in Human Cell Lines
(§2) The inhibition of COX-1 and COX-2 is determined by assessing the PGE2 production after stimulation with arachidonic acid in cell lines expressing human COX-1 (U-937 from human histiocitic lymphoma) and human COX-2 (143.98.2 from human osteosarcoma), respectively.
(§3) The osteosarcoma-derived cells were cultured in 1 mL of DMEM culture medium supplemented with 10% fetal calf serum, in 24-well multidishes until confluence. U-937 cells were cultured in RPMI medium supplemented with 10% fetal calf serum in flasks.
(§4) To evaluate COX-2 activity, the medium was removed and replaced with Hepes-buffered saline solution (HBSS) without Ca^2+/Mg^2+ (2×10^5 cells/well). To evaluate COX-1 activity, the medium was removed and U-937 cells were resuspended to a final density of 3×10^6 cells/mL in HBSS without Ca^2+/Mg^2+ (1 mL/well, in 24-well multidishes). 1 μL of a solution of the test compound dissolved in DMSO or vehicle was added, and the samples were incubated for 15 min at 37° C. (5% CO2 and 95% humidity). Arachidonic acid was added (final concentration: 10 μM) and the samples were incubated for 10 min more. Next the reactions were quenched by adding indomethacin (8 mM, 30 μL). The amount of PGE2 in the supernatant was determined by specific enzymatic immunoassay (Kit Prostaglandin E2, Biotrak EIA system RPN222, Amersham Pharmacia Biotech). All the assays were performed in triplicate.
(§5) The results obtained with representative compounds of the present invention are shown in the following table, where the % of inhibition of COX-1 and COX-2 activity at a concentration of 0.1 μM of test compound are reported.

human COX-2 = target: T2, human COX-2 (Homo sapiens, UniProt P35354); test: Inhibition of COX-2 activity (PGE2 production after arachidonic acid) in 143.98.2 osteosarcoma cells; format: cell-based; conditions: 0.1 μM test compound, PGE2 production after 10 μM arachidonic acid
T2 construct: human COX-2 (143.98.2 from human osteosarcoma), respectively; endogenous in cells; host or cells: 143.98.2 (human osteosarcoma)
T2 sequence (P35354 18-604): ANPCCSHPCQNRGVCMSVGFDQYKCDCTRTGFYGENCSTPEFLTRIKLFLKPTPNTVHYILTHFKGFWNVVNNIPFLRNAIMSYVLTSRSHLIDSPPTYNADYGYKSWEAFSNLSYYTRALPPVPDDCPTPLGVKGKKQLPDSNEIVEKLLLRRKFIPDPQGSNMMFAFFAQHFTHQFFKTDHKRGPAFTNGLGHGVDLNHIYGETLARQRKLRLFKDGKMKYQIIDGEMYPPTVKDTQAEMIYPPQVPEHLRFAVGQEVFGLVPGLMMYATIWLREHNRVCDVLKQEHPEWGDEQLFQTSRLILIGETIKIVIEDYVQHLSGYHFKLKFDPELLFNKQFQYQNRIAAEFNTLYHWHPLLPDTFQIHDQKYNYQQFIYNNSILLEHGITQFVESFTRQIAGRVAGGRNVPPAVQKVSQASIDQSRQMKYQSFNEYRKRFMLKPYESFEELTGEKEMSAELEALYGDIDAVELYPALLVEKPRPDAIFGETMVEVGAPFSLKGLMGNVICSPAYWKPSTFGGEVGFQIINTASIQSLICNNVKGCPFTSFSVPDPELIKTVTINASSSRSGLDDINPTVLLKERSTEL
Protocol: as §1, §2, §3, §4, §5

T1 sequence (P23219 24-599): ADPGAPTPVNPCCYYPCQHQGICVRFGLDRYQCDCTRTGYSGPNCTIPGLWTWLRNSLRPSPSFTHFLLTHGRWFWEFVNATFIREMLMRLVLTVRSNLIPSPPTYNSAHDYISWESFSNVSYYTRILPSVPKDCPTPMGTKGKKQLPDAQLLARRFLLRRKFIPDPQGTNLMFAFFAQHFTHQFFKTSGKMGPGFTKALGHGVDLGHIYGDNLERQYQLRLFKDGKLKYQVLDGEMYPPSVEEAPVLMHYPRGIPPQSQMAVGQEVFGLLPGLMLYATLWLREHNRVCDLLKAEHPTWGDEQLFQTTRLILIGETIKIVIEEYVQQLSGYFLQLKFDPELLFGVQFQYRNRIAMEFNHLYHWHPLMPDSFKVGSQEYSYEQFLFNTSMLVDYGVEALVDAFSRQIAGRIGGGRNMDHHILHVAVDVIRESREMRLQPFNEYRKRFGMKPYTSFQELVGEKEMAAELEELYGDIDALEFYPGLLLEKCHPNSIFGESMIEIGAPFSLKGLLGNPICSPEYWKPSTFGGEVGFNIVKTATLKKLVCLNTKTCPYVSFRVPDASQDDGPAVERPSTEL

In the case of `CS(=O)(=O)c1ccc(-n2cnc(Cl)c2-c2ccc(N3CCCC3)cc2)cc1` [Example 1, 4-Chloro-1-(4-methylsulfonylphenyl)-5-[4-(1-pyrrolidinyl)phenyl]imidazole], the inhibition at 0.1 µM (human COX-1) is reported as 0% and the inhibition at 0.1 µM (human COX-2) is reported as 61%.

In the case of `CS(=O)(=O)c1ccc(-n2cnc(Cl)c2-c2ccc(N3CCC(O)C3)cc2)cc1` (stereo not shown) [Example 3, 4-Chloro-5-[4-(3-hydroxypyrrolidin-1-yl)phenyl]-1-(4-methylsulfonylphenyl)imidazole], the inhibition at 0.1 µM (human COX-1) is reported as 11% and the inhibition at 0.1 µM (human COX-2) is reported as 75%.

With `CC1CCCN1c1ccc(-c2c(Cl)ncn2-c2ccc(S(C)(=O)=O)cc2)cc1` (stereo not shown) [Example 4, 4-Chloro-5-[4-(2-methylpyrrolidin-1-yl)phenyl]-1-(4-methylsulfonylphenyl)imidazole] the inhibition at 0.1 µM (human COX-1) was 0% and the inhibition at 0.1 µM (human COX-2) was 72%.

In the case of `NS(=O)(=O)c1ccc(-n2cnc(Cl)c2-c2ccc(N3CCCC3)cc2)cc1` [Example 5, 4-[4-Chloro-5-[4-(1-pyrrolidinyl)phenyl]imidazol-1-yl]benzenesulfonamide, hydrochloride], the inhibition at 0.1 µM (human COX-1) is reported as 0% and the inhibition at 0.1 µM (human COX-2) is reported as 70%.

`CS(=O)(=O)c1ccc(-n2cnc(Cl)c2-c2ccc(N3CCCC3)c(Cl)c2)cc1` [Example 6, 4-Chloro-5-[3-chloro-4-(1-pyrrolidinyl)phenyl]-1-(4-methylsulfonylphenyl)imidazole] was tested, and the inhibition at 0.1 µM (human COX-1) was 0% and the inhibition at 0.1 µM (human COX-2) was 89%.

In the case of `CS(=O)(=O)c1ccc(-n2cnc(Cl)c2-c2ccc(N3C(=O)CCC3=O)cc2)cc1` [Example 7, 4-Chloro-1-(4-methylsulfonylphenyl)-5-[4-(2,5-dioxopyrrolidin-1-yl)phenyl]imidazole], the inhibition at 0.1 µM (human COX-1) is reported as 0% and the inhibition at 0.1 µM (human COX-2) is reported as 72%.

`CS(=O)(=O)c1ccc(-n2cnc(Cl)c2-c2ccc(N3CC=CC3=O)cc2)cc1` [Example 8, 4-Chloro-1-(4-methylsulfonylphenyl)-5-[4-(2-oxo-3-pyrrolin-1-yl)phenyl]imidazole] showed an inhibition at 0.1 µM (human COX-1) of 0% and an inhibition at 0.1 µM (human COX-2) of 76%.

For `CS(=O)(=O)c1ccc(-n2cnc(Cl)c2-c2ccc(N3CCOC3=O)cc2)cc1` [Example 9, 4-Chloro-1-(4-methylsulfonylphenyl)-5-[4-(2-oxooxazolidin-3-yl)phenyl]imidazole], the inhibition at 0.1 µM (human COX-1) was 0% and the inhibition at 0.1 µM (human COX-2) was 72%.

Compound `CS(=O)(=O)c1ccc(-n2cnc(Cl)c2-c2ccc(N3CCCC3=O)cc2)cc1` [Example 10, 4-Chloro-1-(4-methylsulfonylphenyl)-5-[4-(2-oxopyrrolidin-1-yl)phenyl]imidazole] has an inhibition at 0.1 µM (human COX-1) of 0% and an inhibition at 0.1 µM (human COX-2) of 61%.

`CS(=O)(=O)c1ccc(-n2cnc(Cl)c2-c2ccc(N3CCCC3)nc2)cc1` [Example 12, 4-Chloro-1-(4-methylsulfonylphenyl)-5-[6-(1-pyrrolidinyl)-3-pyridyl]imidazole] showed an inhibition at 0.1 µM (human COX-1) of 0% and an inhibition at 0.1 µM (human COX-2) of 79%.

Work on `CS(=O)(=O)c1ccc(C2=C(c3ccc(N4CC=CC4=O)cc3)C(=O)OC2)cc1` [Example 14, 4-(4-Methylsulfonylphenyl)-3-[4-(2-oxo-3-pyrrolin-1-yl)phenyl]-5H-furan-2-one] yielded an inhibition at 0.1 µM (human COX-1) of 0% and an inhibition at 0.1 µM (human COX-2) of 49%.

`CS(=O)(=O)c1ccc(C2=C(c3ccc(N4CCCC4)cc3)C(=O)OC2)cc1` [Example 15, 4-(4-Methylsulfonylphenyl)-3-[4-(1-pyrrolidinyl)phenyl]-5H-furan-2-one] gave an inhibition at 0.1 µM (human COX-1) of 17% and an inhibition at 0.1 µM (human COX-2) of 81%.

`CS(=O)(=O)c1ccc(C2=C(c3ccc(N4CCCC4)c(Cl)c3)C(=O)OC2)cc1` [Example 16, 3-[3-Chloro-4-(1-pyrrolidinyl)phenyl]-4-(4-methylsulfonylphenyl)-5H-furan-2-one] was tested, and the inhibition at 0.1 µM (human COX-1) was 0% and the inhibition at 0.1 µM (human COX-2) was 93%.

With `CS(=O)(=O)c1ccc(C2=C(c3ccc(N4CCCC4)nc3)C(=O)OC2)cc1` [Example 17, 4-(4-Methylsulfonylphenyl)-3-[6-(1-pyrrolidinyl)-3-pyridyl]-5H-furan-2-one] the inhibition at 0.1 µM (human COX-1) was 0% and the inhibition at 0.1 µM (human COX-2) was 81%.
